Measurements taken from patent publication US9821002B2, “Method for alleviating radiation injury with isorhamnetin-3-O-β-D-glucoside” (Sinotai Oncology Associate., Ltd., priority 2015, dated 2017).

Key:
Assay type in all cases: cell-based, mouse
NMuMG cells [1] = test: Mitochondrial membrane potential assay (JC-1) after X-ray irradiation; details: 15 μM, 2 h pretreatment, X-ray 10 Gy, 48 hours, mean ± SEM
Source text: (§1) Four groups of BNL CL.2 cells (i.e., a normal control group referred to as Normal Control Group 1-A, an X-ray control group referred to as X-Ray Control Group 1-A, and two experimental groups referred to as Experimental Groups 1-A to 2-A), and six groups of NMuMG cells (i.e., a normal control group referred to as Normal Control Group 1-B, an X-ray control group referred to as X-Ray Control Group 1-B, two isorhamnetin groups referred to as Isorhamnetin Groups 1 to 2, and two experimental groups referred to as Experimental Groups 1-B to 2-B), were prepared based on the procedure set forth in “Source and cultivation of cell lines” of “Experimental materials”. BNL CL.2 cells in each group were cultivated using 5 mL of a corresponding medium shown in Table 1 and a 6-cm Petri dish in an amount of 2×10^5 cells per dish. Likewise, NMuMG cells in each group were cultivated using 5 mL of a corresponding medium shown in Table 1 and a 6-cm Petri dish in an amount of 2.5×10^5 cells per dish. The cultivation was conducted in an incubator (37° C., 5% CO2) for 24 hours. […]
(§2) 1 mL of trypsin-EDTA was added so as to detach the cells from the bottom of the Petri dish. […] Mitochondrial membrane potential assay was conducted using BD Accuri™ C6 flow cytometry, and the percentage of mitochondrial membrane potential depolarization (%) was calculated using BD Accuri™ C6 software.

BNL CL.2 cells = test: as above; details: 5 μM, 2 h pretreatment, X-ray 15 Gy, 120 hours, mean ± SEM
Source text: as §1, §2

NMuMG cells [2] = test: Cell cycle analysis (PI flow cytometry) after X-ray irradiation; details: 2 h pretreatment, X-ray 20 Gy, 96 hours, mean ± SEM
Procedure: Four groups of NMuMG cells (i.e., a normal control group, an X-ray control group, and two experimental groups referred to as Experimental Groups 1 to 2) were prepared based on the procedure set forth in “Source and cultivation of cell lines” of “Experimental materials”. NMuMG cells in each group were cultivated using 5 mL of a corresponding medium shown in Table 1 and a 6-cm Petri dish in an amount of 2.5×10^5 cells per dish. The cultivation was conducted in an incubator (37° C., 5% CO2) for 24 hours.
Subsequently, medium was replaced with fresh medium, and a suitable amount of isorhamnetin-3-O-β-D-glucoside stock solution was added to the obtained culture in each of Experimental Groups 1 and 2, such that the final concentration of isorhamnetin-3-O-β-D-glucoside in the culture in Experimental Group 1 was 15 μM, and the final concentration of isorhamnetin-3-O-β-D-glucoside in the culture in Experimental Group 2 was 30 μM. Isorhamnetin-3-O-β-D-glucoside stock solution was not added to the cultures in the normal control group and the X-ray control group.
The culture in each group was then cultivated in an incubator (37° C., 5% CO2) for two hours. The resultant culture was used for the following cell cycle analysis.
The cultures in the X-ray control group and Experimental Groups 1 to 2, prepared according to section A of “Experimental procedures” in this example, were subjected to X-ray irradiation using a linear accelerator at a dose of 20 Gy. The culture in the normal control group received no X-ray irradiation treatment. The culture in each group was cultivated in an incubator (37° C., 5% CO2) for 96 hours, followed by centrifugation at 25° C. and 1200 rpm for 3 minutes. The supernatant was removed, and the precipitate thus obtained was washed with cold PBS (pH 7.4), followed by fixing the cells with 1 mL of cold methanol. The fixed cells thus obtained were left standing at −20° C. overnight. Following this, the fixed cells were washed with cold PBS (pH 7.4), and 250 μL of cold DNA dying solution which was prepared in ddH2O, containing 200 μg/mL RNase A solution (Sigma-Aldrich), 50 μg/mL propidium iodide (PI)(Sigma-Aldrich), and 0.1% (v/v) Triton X-100, was added to re-suspend the cells in each group. The cells were kept in the dark for 30 minutes at 37° C. to obtain stained cells.
Subsequently, the stained cells thus obtained were subjected to cell cycle analysis using BD Accuri™ C6 flow cytometer (BD Biosciences), and 1.0×10^6 cells were analyzed in each analysis. The cells emitted fluorescence when excited by a laser beam of argon ion at 488 nm, and the fluorescence intensity was detected at a wavelength of 585 nm. The percentage of the cells in each cell cycle phase was analyzed using BD Accuri™ C6 software (BD Biosciences).

COc1cc(-c2oc3cc(O)cc(O)c3c(=O)c2O[C@@H]2O[C@H](CO)[C@@H](O)[C@H](O)[C@H]2O)ccc1O [isorhamnetin-3-O-β-D-glucoside]
Percentage of mitochondrial membrane potential depolarization (NMuMG cells [1]): 30.05 ± 1.07 % | Percentage of mitochondrial membrane potential depolarization (BNL CL.2 cells): 16 ± 2.97 % | The percentage of the cells in each cell cycle phase: G0/G1 (NMuMG cells [2]; 15 μM): 21 ± 4.31 % | The percentage of the cells in each cell cycle phase: G2/M (NMuMG cells [2]; 15 μM): 58.76 ± 8.97% | The percentage of the cells in each cell cycle phase: S (NMuMG cells [2]; 15 μM): 6.4 ± 0.28% | The percentage of the cells in each cell cycle phase: Sub-G1 (NMuMG cells [2]; 15 μM): 16.11 ± 2.03 % | The percentage of the cells in each cell cycle phase: G0/G1 (NMuMG cells [2]; 30 μM): 22.25 ± 4.87 % | The percentage of the cells in each cell cycle phase: G2/M (NMuMG cells [2]; 30 μM): 59.63 ± 10.78% | The percentage of the cells in each cell cycle phase: S (NMuMG cells [2]; 30 μM): 5.88 ± 1.2% | The percentage of the cells in each cell cycle phase: Sub-G1 (NMuMG cells [2]; 30 μM): 13.88 ± 1.46 %
